Test results reported in patent US10800792B2, “Inhibitors of Bruton's tyrosine kinase and method of their use” (JANSSEN PHARMACEUTICA NV, priority 2015, dated 2020).

biological target: unphosphorylated-BTK kinase domain (UP-BTK), GST-tagged human BTK (389-659aa) (Homo sapiens (Human), UniProt Q06187); assay: BTK kinase Lanthascreen binding assay; conditions: Lanthascreen tracer competition, 60 minutes incubation; pIC50 = negative log of the IC50 in molar
Outline: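 Measures how well compounds compete with a fluorescence-labelled tracer for binding to BTK in its unphosphorylated state. IC50 values were fitted and expressed as pIC50 (negative logarithm of the molar IC50).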

Chain of unphosphorylated-BTK kinase domain (UP-BTK), GST-tagged human BTK (389-659aa) (Q06187 389-659): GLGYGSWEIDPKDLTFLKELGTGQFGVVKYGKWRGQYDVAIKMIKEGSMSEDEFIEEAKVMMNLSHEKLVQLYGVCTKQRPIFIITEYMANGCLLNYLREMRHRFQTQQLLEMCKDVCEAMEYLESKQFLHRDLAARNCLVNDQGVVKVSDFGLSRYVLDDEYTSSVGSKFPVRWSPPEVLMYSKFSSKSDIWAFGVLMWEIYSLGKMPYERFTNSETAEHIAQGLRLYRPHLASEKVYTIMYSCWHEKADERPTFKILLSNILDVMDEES

| SMILES | BTK_I_binding pIC50 |
| --- | --- |
| C=CC(=O)N1CCC[C@@H](NC(=O)c2sc3nccc4c3c2NC(=O)N4c2ccnc(-c3ccccc3)c2C)C1 (single isomer, unassigned) [Example 676, (R)—N-(1-Acryloylpiperidin-3-yl)-5-(*R)-(3-methyl-2-phenylpyridin-4-yl)-4-oxo-4,5-dihydro-3H-1-thia-3,5,8-triazaacenaphthylene-2-carboxamide] | 7.6 |
| O=C(N[C@@H]1CCCNC1)c1sc2nccc3c2c1NC(=O)N3c1cccc(C2CCC2)c1 [Example 603, (R)-5-(3-Cyclobutylphenyl)-4-oxo-N-(piperidin-3-yl)-4,5-dihydro-3H-1-thia-3,5,8-triazaacenaphthylene-2-carboxamide] | 6.3 |
| C=CC(=O)N1CCC[C@@H](NC(=O)c2sc3nccc4c3c2NC(=O)N4c2cccc(Oc3ccccc3)n2)C1 [Example 635, (R)—N-(1-Acryloylpiperidin-3-yl)-4-oxo-5-(6-phenoxypyridin-2-yl)-4,5-dihydro-3H-1-thia-3,5,8-triazaacenaphthylene-2-carboxamide] | 5.8 |
| CNCC(=O)N1CCC[C@@H](NC(=O)c2sc3nccc4c3c2NC(=O)N4c2ccnc(-c3ccccc3)c2)C1 [Example 714, (R)—N-(1-(Methylglycyl)piperidin-3-yl)-4-oxo-5-(2-phenylpyridin-4-yl)-4,5-dihydro-3H-1-thia-3,5,8-triazaacenaphthylene-2-carboxamide] | 6.5 |
| O=C(N[C@@H]1CCCNC1)c1sc2nccc3c2c1NC(=O)N3c1ccnc(C2CCCCC2)c1 [Example 731, (R)-5-(2-Cyclohexylpyridin-4-yl)-4-oxo-N-(piperidin-3-yl)-4,5-dihydro-3H-1-thia-3,5,8-triazaacenaphthylene-2-carboxamide] | <6 |

same assay, conditions: Lanthascreen tracer competition, 60 minutes incubation; pIC50 = negative log of the IC50 in molar; read-out: BTK_I_binding pIC50 (converted)

| SMILES | IC50 |
| --- | --- |
| C=CC(=O)N[C@@H]1COC[C@@H]1NC(=O)c1sc2nccc3c2c1NC(=O)N3c1cnc(Oc2ccccc2)cc1C (single isomer, unassigned) [Example 752, N-((*3R,*4S)-4-Acrylamidotetrahydrofuran-3-yl)-5-(*S)-(4-methyl-6-phenoxypyridin-3-yl)-4-oxo-4,5-dihydro-3H-1-thia-3,5,8-triazaacenaphthylene-2-carboxamide] | 398 nM |

same assay, conditions: pIC50 = negative log of the IC50 in molar; 60 minutes incubation, 50 nM Tracer 236

| SMILES | BTK_I_binding pIC50 |
| --- | --- |
| C=CC(=O)N1CCC[C@@H](NC(=O)c2sc3nccc4c3c2NC(=O)N4c2ccc(CC)cc2C)C1 [Example 62, (R)—N-(1-Acryloylpiperidin-3-yl)-5-(4-ethyl-2-methylphenyl)-4-oxo-4,5-dihydro-3H-1-thia-3,5,8-triazaacenaphthylene-2-carboxamide] | 7.1 |
| N#CCC(=O)N1CCC[C@@H](NC(=O)c2sc3nccc4c3c2NC(=O)N4c2ccc(Oc3ccccc3)cc2)C1 [Example 181, (R)—N-(1-(2-Cyanoacetyl)piperidin-3-yl)-4-oxo-5-(4-phenoxyphenyl)-4,5-dihydro-3H-1-thia-3,5,8-triazaacenaphthylene-2-carboxamide] | 7.1 |
| Cc1cc(Oc2ccccc2C(F)(F)F)ccc1N1C(=O)Nc2c(C(=O)N[C@@H]3CCCN(C)C3)sc3nccc1c23 [Example 242, (R)-5-(2-Methyl-4-(2-(trifluoromethyl)phenoxy)phenyl)-N-(1-methylpiperidin-3-yl)-4-oxo-4,5-dihydro-3H-1-thia-3,5,8-triazaacenaphthylene-2-carboxamide] | 6.7 |
| C=C(F)C(=O)N1CCC[C@@H](NC(=O)c2sc3nccc4c3c2NC(=O)N4c2ccc(Oc3ccccc3)cc2C)C1 (single isomer, unassigned) [Example 49, (R)—N-(1-(2-Fluoroacryloyl)piperidin-3-yl)-5-(*S)-(2-methyl-4-phenoxyphenyl)-4-oxo-4,5-dihydro-3H-1-thia-3,5,8-triazaacenaphthylene-2-carboxamide] | 7.2 |
| Cc1cc(Oc2ccccc2)ccc1N1C(=O)Nc2c(C(=O)N[C@@H]3CCCN(C(=O)/C(C#N)=C/C(C)(C)NC4CC4)C3)sc3nccc1c23 [Example 152, (R,E)-N-(1-(2-Cyano-4-(cyclopropylamino)-4-methylpent-2-enoyl)piperidin-3-yl)-5-(2-methyl-4-phenoxyphenyl)-4-oxo-4,5-dihydro-3H-1-thia-3,5,8-triazaacenaphthylene-2-carboxamide] | 7.3 |
| CCOc1ccc(N2C(=O)Nc3c(C(=O)N[C@@H]4CCCN(C(=O)/C(C#N)=C/C5CC5)C4)sc4nccc2c34)c(C)c1 [Example 193, (R,E)-N-(1-(2-Cyano-3-cyclopropylacryloyl)piperidin-3-yl)-5-(4-ethoxy-2-methylphenyl)-4-oxo-4,5-dihydro-3H-1-thia-3,5,8-triazaacenaphthylene-2-carboxamide] | 7.3 |
| COCCC(=O)N1CC(NC(=O)c2sc3nccc4c3c2NC(=O)N4c2ccc(Oc3ccccc3)cc2C)C1 [Example 246, N-(1-(3-Methoxypropanoyl)azetidin-3-yl)-5-(2-methyl-4-phenoxyphenyl)-4-oxo-4,5-dihydro-3H-1-thia-3,5,8-triazaacenaphthylene-2-carboxamide] | 6.5 |

same assay, conditions: pIC50 = negative log of the IC50 in molar; 60 minutes incubation, 50 nM Tracer 236; read-out: BTK_I_binding pIC50 (converted)

| SMILES | IC50 |
| --- | --- |
| COC[C@@H](N)C(=O)N1CCC[C@@H](NC(=O)c2sc3nccc4c3c2NC(=O)N4c2ccc(Oc3ccccc3)cc2C)C1 [Example 111, N—((R)-1-((R)-2-Amino-3-methoxypropanoyl)piperidin-3-yl)-5-(2-methyl-4-phenoxyphenyl)-4-oxo-4,5-dihydro-3H-1-thia-3,5,8-triazaacenaphthylene-2-carboxamide] | 63.1 nM |

same assay, conditions: unphosphorylated-BTK kinase domain, 50 nM Tracer 236, 60 minutes; pIC50 = negative log of the IC50 in molar

| SMILES | BTK_I_binding pIC50 |
| --- | --- |
| C=CC(=O)N1CCC[C@@H](NC(=O)c2sc3nccc4c3c2NC(=O)N4c2cccc(-c3ccccc3C(F)(F)F)c2)C1 [Example 563, (R)—N-(1-Acryloylpiperidin-3-yl)-4-oxo-5-(2′-(trifluoromethyl)-[1,1′-biphenyl]-3-yl)-4,5-dihydro-3H-1-thia-3,5,8-triazaacenaphthylene-2-carboxamide] | 7.0 |
| Cc1cc(Oc2ccccc2)ccc1N1C(=O)Nc2c(C(=O)N[C@@H]3CCCN(C(=O)/C=C/CS(C)(=O)=O)C3)sc3nccc1c23 [Example 374, (R,E)-5-(2-Methyl-4-phenoxyphenyl)-N-(1-(4-(methylsulfonyl)but-2-enoyl)piperidin-3-yl)-4-oxo-4,5-dihydro-3H-1-thia-3,5,8-triazaacenaphthylene-2-carboxamide] | 7.0 |
| O=C(N[C@@H]1CCCNC1)c1sc2nccc3c2c1NC(=O)N3c1ccc(-c2ccccc2)cc1 [Example 344, (R)-5-([1,1′-Biphenyl]-4-yl)-4-oxo-N-(piperidin-3-yl)-4,5-dihydro-3H-1-thia-3,5,8-triazaacenaphthylene-2-carboxamide] | 5.0 |
| O=C(N[C@@H]1CCCNC1)c1sc2nccc3c2c1NC(=O)N3c1cc2ccccc2s1 [Example 428, (R)-5-(Benzo[b]thiophen-2-yl)-4-oxo-N-(piperidin-3-yl)-4,5-dihydro-3H-1-thia-3,5,8-triazaacenaphthylene-2-carboxamide] | <5 |
| O=C(N[C@@H]1CCCNC1)c1sc2nccc3c2c1NC(=O)N3c1ccc2sccc2c1 [Example 410, (R)-5-(Benzo[b]thiophen-5-yl)-4-oxo-N-(piperidin-3-yl)-4,5-dihydro-3H-1-thia-3,5,8-triazaacenaphthylene-2-carboxamide] | 5.0 |
| C=CC(=O)N1CCC[C@@H](NC(=O)c2sc3nccc4c3c2NC(=O)N4c2cnc(Oc3ccccc3)nc2)C1 [Example 556, (R)—N-(1-Acryloylpiperidin-3-yl)-4-oxo-5-(2-phenoxypyrimidin-5-yl)-4,5-dihydro-3H-1-thia-3,5,8-triazaacenaphthylene-2-carboxamide] | 7.5 |
| C=CC(=O)N1CCC[C@@H](NC(=O)c2sc3nccc4c3c2NC(=O)N4c2cccc(-c3cccc(Cl)c3)c2)C1 [Example 507, (R)—N-(1-Acryloylpiperidin-3-yl)-5-(3′-chloro-[1,1′-biphenyl]-3-yl)-4-oxo-4,5-dihydro-3H-1-thia-3,5,8-triazaacenaphthylene-2-carboxamide] | 7.8 |
| C=CC(=O)N1CCC[C@@H](NC(=O)c2sc3nccc4c3c2NC(=O)N4c2cc(-c3ccccc3)ccn2)C1 [Example 526, (R)—N-(1-Acryloylpiperidin-3-yl)-4-oxo-5-(4-phenylpyridin-2-yl)-4,5-dihydro-3H-1-thia-3,5,8-triazaacenaphthylene-2-carboxamide] | 7.6 |

same assay, conditions: unphosphorylated-BTK kinase domain, 60 minutes incubation, 50 nM Tracer 236; pIC50 = negative log of the IC50 in molar

| SMILES | BTK_I_binding pIC50 |
| --- | --- |
| CN(C)c1ccc(N2C(=O)Nc3c(C(=O)N[C@@H]4CCCNC4)sc4nccc2c34)cc1 [Example 949, (R)-5-(4-(Dimethylamino)phenyl)-4-oxo-N-(piperidin-3-yl)-4,5-dihydro-3H-1-thia-3,5,8-triazaacenaphthylene-2-carboxamide] | 5.2 |
| CC(C)(C)c1ccc(N2C(=O)Nc3c(C(=O)N[C@@H]4CCCNC4)sc4nccc2c34)cc1 [Example 954, (R)-5-(4-(tert-Butyl)phenyl)-4-oxo-N-(piperidin-3-yl)-4,5-dihydro-3H-1-thia-3,5,8-triazaacenaphthylene-2-carboxamide] | 5.0 |
| O=C(N[C@@H]1CCCNC1)c1sc2nccc3c2c1NC(=O)N3c1cccc(-c2cccnc2)c1 [Example 937, (R)-4-Oxo-N-(piperidin-3-yl)-5-(3-(pyridin-3-yl)phenyl)-4,5-dihydro-3H-1-thia-3,5,8-triazaacenaphthylene-2-carboxamide] | 6.0 |
| Cc1ccc(Oc2ccccc2)cc1N1C(=O)Nc2c(C(=O)N[C@H]3CCCN(C(=O)/C(C#N)=C/C4CC4)C3)sc3nccc1c23 [Example 938, (S,E)-N-(1-(2-Cyano-3-cyclopropylacryloyl)piperidin-3-yl)-5-(2-methyl-5-phenoxyphenyl)-4-oxo-4,5-dihydro-3H-1-thia-3,5,8-triazaacenaphthylene-2-carboxamide] | 6.0 |
